Results taken from ChEMBL document CHEMBL1129644, “Nucleosides with a twist. Can fixed forms of sugar ring pucker influence biological activity in nucleosides and oligonucleotides?” (J Med Chem, 1996).
Converted amounts (≈) assume the structure as drawn.

Legend:
[1] = Compound was tested for cytotoxicity against HSV-1 (herpes simplex type-1) of HFF (human foreskin fibroblasts) cells by cytopathogenic effect (CPE) inhibition assay; assay type: cell-based; conditions: HFF (human foreskin fibroblast) cells
[2] = Compound was tested for cytotoxicity against HCMV (human cytomegalovirus) of HFF(human foreskin fibroblasts) cells by cytopathogenic effect (CPE) inhibition assay; assay type: cell-based; conditions: HFF (human foreskin fibroblast) cells
[3] = Compound was tested for cytotoxicity against HSV-2 (herpes simplex type 2) of HFF (human foreskin fibroblasts) cells by cytopathogenic effect (CPE) inhibition assay; assay type: cell-based; conditions: HFF (human foreskin fibroblast) cells
[4] = Compound was tested for cytotoxicity against HSV-1 (herpes simplex type-1) of HFF (human foreskin fibroblasts) cells; assay type: cell-based; conditions: HFF (human foreskin fibroblast) cells
[5] = Compound was tested for cytotoxicity against HSV-1 (herpes simplex type-1) of HFF (human foreskin fibroblasts) cells in different experiment; assay type: cell-based; conditions: HFF (human foreskin fibroblast) cells
[6] = (§1) Compound was tested for cytotoxicity against HSV-2 (herpes simplex type-2) of HFF (human foreskin fibroblasts) cells; conditions: human alphaherpesvirus 2, HFF (human foreskin fibroblast) cells
[7] = (§2) Compound was tested for cytotoxicity against HSV-2 (herpes simplex type-2) of HFF (human foreskin fibroblasts) cells in different experiment; conditions: human alphaherpesvirus 2, HFF (human foreskin fibroblast) cells
[8] = as §2; assay type: cell-based; conditions: HFF (human foreskin fibroblast) cells
[9] = as §1; assay type: cell-based; conditions: HFF (human foreskin fibroblast) cells

Row | Structure (SMILES) | CC50 [1] | CC50 [2] | CC50 [3] | CC50 [4] | CC50 [5] | CC50 [6] | CC50 [7] | CC50 [8] | CC50 [9]
1 | O=c1ccn([C@H]2C[C@H](O)[C@@]3(O)CC23)c(=O)[nH]1 (stereo not given in full) | > 100 µg/mL | > 100 µg/mL | > 100 µg/mL | – | – | – | – | – | –
2 | Nc1ncnc2c1ncn2[C@H]1C[C@H](O)[C@@]2(O)CC12 (stereo not given in full) | > 100 µg/mL | > 100 µg/mL | > 100 µg/mL | – | – | – | – | – | –
3 | Cc1cn([C@@]23CC2[C@H](O)[C@@H](O)C3)c(=O)[nH]c1=O (stereo not given in full) | – | – | – | > 50 µg/mL | > 20 µg/mL | > 50 µg/mL | > 20 µg/mL | – | –
4 | Nc1ccn([C@H]2C[C@H](O)[C@@]3(O)CC23)c(=O)n1 (stereo not given in full) | 68 µg/mL (≈ 305 µM) | 8.8 µg/mL (≈ 39.4 µM) | 96 µg/mL (≈ 430 µM) | – | – | – | – | – | –
5 | Cc1cn(C2C[C@H](O)[C@@H](O)C2)c(=O)[nH]c1=O | – | – | – | > 10 µg/mL | – | – | – | > 10 µg/mL | –
6 | Nc1nc(O)c2ncn([C@H]3C[C@H](O)[C@@]4(O)CC34)c2n1 (stereo not given in full) | > 100 µg/mL | 64.3 µg/mL (≈ 244 µM) | > 100 µg/mL | – | – | – | – | – | –
7 | Cc1cn([C@H]2C[C@H](O)[C@@]3(O)CC23)c(=O)[nH]c1=O (stereo not given in full) | > 100 µg/mL | 63.7 µg/mL (≈ 267 µM) | > 100 µg/mL | > 20 µg/mL | > 20 µg/mL | – | – | > 20 µg/mL | > 20 µg/mL
